Test results published in US20140357577A1, “HIV Membrane Fusion Inhibitors” (priority 2011, published 2014).
Starred links: 1 amine or outer side, 2 acyl side, 3 side chain; linkers in the order of their positions; H or OH if unused. Positions of bridges follow the written chain, without caps; N, C: chain ends. Non-standard residues stand in square brackets, D forms with d. Primed or numbered codes have the meaning given here. *: point of attachment. B21″ = 2,7-dimethylnaphtyl linker joining two Cys, c1cc2ccc(C[*:2])cc2cc1C[*:1]; Palmitoyl = CCCCCCCCCCCCCCCC(=O)*; tBuAla = CC(C)(C)C[C@H](N)C(=O)O; Suc = O=C(CCC(=O)[*:2])[*:1]; B1 = not defined here; B2 = not defined here

Assays:
[1] = tested on: HIV wild type virus strain IIIB; assay: Standard Anti-Viral-Experiment (AVE), HIV-1 replication assay in MT4-LTR-EGFP cells, wild type IIIB; type: cell-based; settings: 3 days, EGFP signal
Excerpt: • Standard Anti-Viral-Experiment “AVE” (wild type HIV strain IIIB+HIV strain HXB2D side directed mutants V38A and Q40H)
The HIV-1 replication assay measures virus replication (HIV wild type virus strain 111B or HXB2D, or a HIV mutant virus strain HXB2D with mutation V38A or Q40H in the gp41 gene) as an induction of enhanced green fluorescent protein (EGFP) expression. The indicator MT4-LTR-EGFP cells contain an EGFP gene under the control of the HIV-1 LTR promoter sequence. Successful HIV-1 infection results in viral Tat protein expression and subsequent induction of EGFP expression. Compounds/peptides inhibiting HIV-1 infection are expected to reduce EGFP expression as compared to the untreated HIV-infected control.
Serial 4-fold dilutions of test compounds/peptides were mixed with HIV-1 (IIIB, HXB2D, or a HXB2D mutant virus (V38A or Q40H)) and MT4-LTR-EGFP cells and incubated at 37° C. After 3 days, the wells were examined for EGFP expression using an argon laser-scanning microscope. The effective compound/peptide concentration inhibiting 50% of the virus-induced EGFP signal (EC50) was determined by linear interpolation of the EGFP signal vs. logarithm of the compound concentration; (T20, C34 and Sifuvirtide were added as reference compounds). For the V38A and Q40H mutant viruses, results were reported as a fold change in EC50, as compared with a drug-susceptible wild type strain HXB2D, which forms the backbone of the mutant virus. • Standard AVE (50% Human Serum)

[2] = tested on: HIV-IIIB + 50% HS; assay: Standard AVE (50% Human Serum), HIV-1 replication assay in MT4-LTR-EGFP cells; type: cell-based; settings: fold change vs EC50 in the assay without human serum
Excerpt: The HIV-1 replication assay (with 50% human serum) measures virus replication as an induction of enhanced green fluorescent protein (EGFP) expression, in the presence of 50% human serum. The indicator MT4-LTR-EGFP cells contain an EGFP gene under the control of the HIV-1 LTR promoter sequence. Successful HIV-1 infection results in viral Tat protein expression and subsequent induction of EGFP expression. Compounds/peptides inhibiting HIV-1 infection are expected to reduce EGFP expression as compared to the untreated HIV-infected control. Compounds/peptides binding to human serum are expected to have a reduced activity for inhibiting the virus in the assay.
Serial 4-fold dilutions of test compounds/peptides were mixed with HIV-1 and MT4-LTR-EGFP cells and incubated at 37° C., in the presence of 50% human serum. After 3 days, the wells were examined for EGFP expression using an argon laser-scanning microscope. The effective compound/peptide concentration inhibiting 50% of the virus-induced EGFP signal (EC50) was determined by linear interpolation of the EGFP signal vs. logarithm of the compound concentration; T20, C34 and Sifuvirtide were added as reference compounds. Results were reported as a fold change in EC50, as compared with the acquired EC50 in the assay without human serum.

[3] = target: gp41 of HIV-1 strain HXB2D with mutation V38A (HIV-1 strain HXB2D, UniProt P04578); assay: cell-based or functional assay

| Molecule | EC50 [1] | HIV-IIIB + 50% HS (Fold change in EC50) [2] | fold change in EC50, HIV-HXB2D V38A mutant [3] |
| --- | --- | --- | --- |
| Ac-CYAACIEALIRAAQEQQEKNEAALR-NH2 [Peptide 21] | 5 nM | 3 | – |
| ENYTRQIYRILEESQEQQDRNERDLL [Slfuvlrtlde-PBD, reference compound] | 36400 nM | 0.8 | – |
| Ac-ACYLACIEALIRAAQEQQEKNEAALL-NH2 [Peptide 54] | 3 nM | 2 | – |
| Ac-ACYAACIEALIRAAQEQQEKNEAALR-NH2 [Peptide 65] | 17 nM | 1 | – |
| Suc-aNYLALIEALIRAAQEQQEKNEAALr-NH2 [Peptide 12] | 10 nM | 0.4 | – |
| Ac-ACYAACIDALIRAAQEQQEKNEAALR-NH2 [Peptide 70] | 23 nM | 1 | – |
| Suc-ANYAALIEALIRAAQEQQEKNEAALR-NH2 (SMILES CC[C@H](C)[C@H](NC(=O)[C@H](CC(C)C)NC(=O)[C@H](C)NC(=O)[C@H](CCC(=O)O)NC(=O)[C@@H](NC(=O)[C@H](CC(C)C)NC(=O)[C@H](C)NC(=O)[C@H](C)NC(=O)[C@H](Cc1ccc(O)cc1)NC(=O)[C@H](CC(N)=O)NC(=O)[C@H](C)NC(=O)CCC(=O)O)[C@@H](C)CC)C(=O)N[C@@H](CCCNC(=N)N)C(=O)N[C@@H](C)C(=O)N[C@@H](C)C(=O)N[C@@H](CCC(N)=O)C(=O)N[C@@H](CCC(=O)O)C(=O)N[C@@H](CCC(N)=O)C(=O)N[C@@H](CCC(N)=O)C(=O)N[C@@H](CCC(=O)O)C(=O)N[C@@H](CCCCN)C(=O)N[C@@H](CC(N)=O)C(=O)N[C@@H](CCC(=O)O)C(=O)N[C@@H](C)C(=O)N[C@@H](C)C(=O)N[C@@H](CC(C)C)C(=O)N[C@@H](CCCNC(=N)N)C(N)=O) [Peptide 3] | 22 nM | 0.4 | – |
| AC-ACYWACIEALIRAAQEQQEKNEAALR-NH2 [Peptide 63] | 7 nM | 3 | – |
| Ac-ACYVACIEALIRAAQEQQEKNEAALR-NH2 [Peptide 62] | 10 nM | 2 | – |
| Suc-ENYLRLIEELIRKAQEQQEKNEAALRGSGK(palmitoyl)-NH2 (Suc-ENYLRLIEELIRKAQEQQEKNEAALRGSGK(Palmitoyl)-NH2; SMILES CCCCCCCCCCCCCCCC(=O)NCCCC[C@H](NC(=O)CNC(=O)[C@H](CO)NC(=O)CNC(=O)[C@H](CCCNC(=N)N)NC(=O)[C@H](CC(C)C)NC(=O)[C@H](C)NC(=O)[C@H](C)NC(=O)[C@H](CCC(=O)O)NC(=O)[C@H](CC(N)=O)NC(=O)[C@H](CCCCN)NC(=O)[C@H](CCC(=O)O)NC(=O)[C@H](CCC(N)=O)NC(=O)[C@H](CCC(N)=O)NC(=O)[C@H](CCC(=O)O)NC(=O)[C@H](CCC(N)=O)NC(=O)[C@H](C)NC(=O)[C@H](CCCCN)NC(=O)[C@H](CCCNC(=N)N)NC(=O)[C@@H](NC(=O)[C@H](CC(C)C)NC(=O)[C@H](CCC(=O)O)NC(=O)[C@H](CCC(=O)O)NC(=O)[C@@H](NC(=O)[C@H](CC(C)C)NC(=O)[C@H](CCCNC(=N)N)NC(=O)[C@H](CC(C)C)NC(=O)[C@H](Cc1ccc(O)cc1)NC(=O)[C@H](CC(N)=O)NC(=O)[C@H](CCC(=O)O)NC(=O)CCC(=O)O)[C@@H](C)CC)[C@@H](C)CC)C(N)=O) [Peptide 55] | 0.05 nM | 3 | – |
| AC-ACYAACIEALIRAAREQQEKNEAALR-NH2 [Peptide 84] | 13 nM | 4 | – |
| Ac-ACYFACIEALIRAAQEQQEKNEAALR-NH2 [Peptide 61] | 4 nM | 4 | – |
| Suc-ANYLALIEALIRAAQEQQEKNEAAL-NH2 (SMILES CC[C@H](C)[C@H](NC(=O)[C@H](CC(C)C)NC(=O)[C@H](C)NC(=O)[C@H](CCC(=O)O)NC(=O)[C@@H](NC(=O)[C@H](CC(C)C)NC(=O)[C@H](C)NC(=O)[C@H](CC(C)C)NC(=O)[C@H](Cc1ccc(O)cc1)NC(=O)[C@H](CC(N)=O)NC(=O)[C@H](C)NC(=O)CCC(=O)O)[C@@H](C)CC)C(=O)N[C@@H](CCCNC(=N)N)C(=O)N[C@@H](C)C(=O)N[C@@H](C)C(=O)N[C@@H](CCC(N)=O)C(=O)N[C@@H](CCC(=O)O)C(=O)N[C@@H](CCC(N)=O)C(=O)N[C@@H](CCC(N)=O)C(=O)N[C@@H](CCC(=O)O)C(=O)N[C@@H](CCCCN)C(=O)N[C@@H](CC(N)=O)C(=O)N[C@@H](CCC(=O)O)C(=O)N[C@@H](C)C(=O)N[C@@H](C)C(=O)N[C@@H](CC(C)C)C(N)=O) [Peptide 1] | 4 nM | 0.4 | – |
| Ac-ACYIACIEALIRAAQEQQEKNEAALR-NH2 [Peptide 57] | 4 nM | 2 | – |
| ANYAALIEALIRKAQEQQEKNEAALR [Peptide 5] | 48 nM | 0.5 | – |
| Ac-ACYIACIEALIRAAQEQQEKNEAALR-NH2 [Peptide 58] | 4 nM | 6 | – |
| Ac-aCYAACIEALIRAAQEQQEKNEAALr-NH2 [Peptide 76] | – | 2 | – |
| Suc-ENYLRLIEELIRKAQEQQEKNEAALR-NH2 (SMILES CC[C@H](C)[C@H](NC(=O)[C@H](CC(C)C)NC(=O)[C@H](CCC(=O)O)NC(=O)[C@H](CCC(=O)O)NC(=O)[C@@H](NC(=O)[C@H](CC(C)C)NC(=O)[C@H](CCCNC(=N)N)NC(=O)[C@H](CC(C)C)NC(=O)[C@H](Cc1ccc(O)cc1)NC(=O)[C@H](CC(N)=O)NC(=O)[C@H](CCC(=O)O)NC(=O)CCC(=O)O)[C@@H](C)CC)C(=O)N[C@@H](CCCNC(=N)N)C(=O)N[C@@H](CCCCN)C(=O)N[C@@H](C)C(=O)N[C@@H](CCC(N)=O)C(=O)N[C@@H](CCC(=O)O)C(=O)N[C@@H](CCC(N)=O)C(=O)N[C@@H](CCC(N)=O)C(=O)N[C@@H](CCC(=O)O)C(=O)N[C@@H](CCCCN)C(=O)N[C@@H](CC(N)=O)C(=O)N[C@@H](CCC(=O)O)C(=O)N[C@@H](C)C(=O)N[C@@H](C)C(=O)N[C@@H](CC(C)C)C(=O)N[C@@H](CCCNC(=N)N)C(N)=O) [peptide 20] | – | – | 8 fold |
| Ac-CYAACIEALIRAAQEQQEKNEAALR-NH2 (linker 1-5 via B21″; SMILES CC[C@H](C)[C@H](NC(=O)[C@H](CC(C)C)NC(=O)[C@H](C)NC(=O)[C@H](CCC(=O)O)NC(=O)[C@@H](NC(=O)[C@@H]1CSCc2ccc3ccc(cc3c2)CSC[C@H](NC(C)=O)C(=O)N[C@@H](Cc2ccc(O)cc2)C(=O)N[C@@H](C)C(=O)N[C@@H](C)C(=O)N1)[C@@H](C)CC)C(=O)N[C@@H](CCCNC(=N)N)C(=O)N[C@@H](C)C(=O)N[C@@H](C)C(=O)N[C@@H](CCC(N)=O)C(=O)N[C@@H](CCC(=O)O)C(=O)N[C@@H](CCC(N)=O)C(=O)N[C@@H](CCC(N)=O)C(=O)N[C@@H](CCC(=O)O)C(=O)N[C@@H](CCCCN)C(=O)N[C@@H](CC(N)=O)C(=O)N[C@@H](CCC(=O)O)C(=O)N[C@@H](C)C(=O)N[C@@H](C)C(=O)N[C@@H](CC(C)C)C(=O)N[C@@H](CCCNC(=N)N)C(N)=O) [peptide 22] | – | – | 19 fold |
| Suc-CYLACIEELIRKAQEQQEKNEAAL[tBuAla]-NH2 (linker 1-5 via B2; reading uncertain) [peptide 23] | – | – | 45 fold |
| Ac-CYAACIEALIRAAQEQQEKNEAALR-NH2 (linker 1-5 via B1; reading uncertain) [peptide 21] | – | – | 75 fold |
